According to patent publication US8349839B2, “Inhibitors of HIV replication” (Boehringer Ingelheim International GmbH, priority 2009, dated 2013):
pEC50, pIC50: −log10 of the molar value.

Legend:
[1] = molecular target: HIV reverse transcriptase (Human immunodeficiency virus type 1 group M subtype B, UniProt P04585); assay: HIV Reverse Transcriptase Assay (IC50); assay type: biochemical; settings: assay of Example 67; 1 mM of ATP added to the reaction mixture
Description: (§1) Diluted solutions of stock solutions of compounds of Formula I in DMSO are prepared in assay buffer in Eppendorf tubes 16 h prior to their use in the biological assay, using a minimal supplementary volume of 75 μL of assay buffer in addition to the volume required in the assay. The samples are vortexed for 10 min at RT and incubated for 16 h at 4° C. The equilibrated solutions are centrifuged at 16 000 g for 5 min in a centrifuge equipped with an internal chiller, which is pre-equilibrated at 4° C., and the supernatant is collected. The portion of supernatant required for the serial dilutions in the biological assay is transferred to the compound dilution plate and a 75 μL portion of the remaining supernatant is transferred to a 1.4 mL tube (Micronic). A 25 μL volume of DMSO is promptly added and the sample is submitted for concentration determination by HPLC, along with the stock solution of the compound in DMSO as a standard for concentration determination analysis.
HIV Reverse Transcriptase Assay (IC50)
The assay used to measure inhibition of HIV reverse transcriptase is as described in WO 2006/034583, pages 52-53, incorporated herein by reference, except that 1 mM of ATP was added to the reaction mixture.

[2] = system: HIV-1 replication in C8166 LTRluc cells; assay: C8166 HIV-1 Luciferase Assay (EC50); assay type: cell-based; settings: Human immunodeficiency virus 1, 72 h; assay of Example 68; C8166 LTRluc cells infected with HIV-1 at moi 0.005, 3 days
Description: as §1
C8166 HIV-1 Luciferase Assay (EC50)
The assay used to measure inhibition of HIV replication is as described in WO 2004/050643, pages 73-75, incorporated herein by reference, with the following modifications:
Serial dilutions of HIV-1 inhibitors are prepared in complete media from DMSO stock solutions. Eleven serial dilutions of desired concentration are prepared in a 1 mL deep well titer plate (96 wells). The 12th well contains complete media with no inhibitor and serves as the positive control. All samples contain the same concentration of DMSO (<0.1% DMSO). Inhibitor is added, to triplicate wells, of a 96 well tissue culture treated clear view black microtiter plate (Corning Costar catalogue #3904). The total volume per well is 200 μL of media containing the cells and inhibitor. The last row is reserved for uninfected C8166 LTRluc cells to serve as the background blank control and the first row is media alone.
Count C8166 LTRluc cells and place in a minimal volume of complete RPMI 1640 in a tissue culture flask (ex. 30×10^6 cells in 10 mL media/25 cm^2 flask). Infect cells with HIV-1 at a moi of 0.005. Incubate cells for 1.5 h at 37° C. on a rotating rack in a 5% CO2 incubator. Resuspend cells in complete RPMI to give a final concentration of 25,000-cells/well. Add cells to wells of 96 well microtiter plate containing inhibitors. Add 25,000 uninfected C8166-LTRluc cells/well in 200 μL complete RPMI to last row for background control. Incubate cells at 37° C. in 5% CO2 incubator for 3 days.
50 μL Steady Glo (luciferase substrate T1/2=5 hours Promega catalogue # E2520) is added to each well of the 96 well plate. The relative light units (RLU) of luciferase are determined using a luminescence plate reader. The calculated % inhibition values are used to determine EC50, slope factor (n) and maximum inhibition (Imax).

| SMILES | pIC50 [1] | pEC50 [2] |
| --- | --- | --- |
| O=c1nc(-c2ccccc2)c2oc3ccccc3c2n1CCN1CCCC1 [Compound 1001] | 5.63 |  |
| CN1CCN(CC(=O)Nc2ccc(-c3nc(=O)n(C)c4c3oc3ccccc34)cc2)CC1 [Compound 1002] | 4.96 | 4.82 |
| COCCn1c(=O)nc(-c2ccc(NC(=O)CN(C)C)cc2)c2oc3ccccc3c21 [Compound 1004] | 5.94 | 5.44 |
| COCCn1c(=O)nc(-c2ccc(NC(=O)CN3CCOCC3)cc2)c2oc3ccccc3c21 [Compound 1005] | 6.67 |  |
| CCNCC(=O)Nc1ccc(-c2nc(=O)n(CCOC)c3c2oc2ccccc23)cc1 [Compound 1009] | 7.14 | 6.17 |
| COCCn1c(=O)nc(-c2ccc(NC(=O)NCCN3CCCC3)cc2)c2oc3ccccc3c21 [Compound 1016] | 6.97 | 5.17 |
| COCCn1c(=O)nc(-c2ccc(OCCN(C)C)cc2)c2oc3ccccc3c21 [Compound 1036] | 6.20 | 4.85 |
| CCNCC(=O)Nc1ccc(-c2nc(=O)n(C)c3c2oc2ccccc23)cc1 [Compound 1051] | 6.28 | 6.01 |
| COCCn1c(=O)nc(-c2ccc(NC(=O)CN3CCCC3)c(OC)c2)c2oc3ccccc3c21 [Compound 1056] | 5.60 |  |
| COCCn1c(=O)nc(-c2ccc(N(C)CCN(C)C)nc2)c2oc3ccccc3c21 [Compound 1070] | 6.51 | 5.92 |
| COCCn1c(=O)nc(-c2ccc(N3CCN(C(C)C)CC3)nc2)c2oc3ccccc3c21 [Compound 1073] | 6.97 | 6.14 |
| O=c1nc(-c2ccccc2)c2oc3ccc(Cl)cc3c2n1CCN1CCCC1 [Compound 2001] | 6.23 | 5.43 |
| O=c1nc(-c2ccccc2)c2oc3ccc(Cl)cc3c2n1CCN1CCC(F)(F)C1 [Compound 2009] | 6.49 | 5.54 |
| CCNCC(=O)Nc1ccc(-c2nc(=O)n(CCOC)c3c2oc2ccc(-c4cncs4)cc23)cc1 [Compound 2021] | 7.70 | 6.70 |
| CN1CCc2cc(-c3ccc4oc5c(-c6ccc(F)cc6)nc(=O)n(CCN6CCCC6C(N)=O)c5c4c3)ccc2C1 (centres unmarked) [Compound 2025] | 7.46 | 7.28 |
| CC(=O)N(C)C1CCN(CCn2c(=O)nc(-c3ccccc3)c3oc4ccc(Br)cc4c32)C1 (centres unmarked) [Compound 2038] | 6.60 | 5.54 |
| CCNCC(=O)Nc1ccc(-c2nc(=O)n(CCOC)c3c2oc2ccc(-c4ccc5c(c4)N(C)CCC5)cc23)cc1 [Compound 2039] | 7.62 | 6.36 |
| CCNCC(=O)Nc1ccc(-c2nc(=O)n(CCOC)c3c2oc2ccc(-c4cccc5c4CCN(C)C5)cc23)cc1 [Compound 2115] | 5.94 |  |
| COCCn1c(=O)nc(-c2ccc(N)cc2)c2oc3ccc(Br)cc3c21 [Compound 2133] | 6.12 | 5.33 |

| SMILES | pIC50 [1] | pEC50 [2] |
| --- | --- | --- |
| COCCn1c(=O)nc(-c2ccc(NS(C)(=O)=O)cc2)c2oc3ccc(-c4ccc(CN(C)C)cc4)cc3c21 [Compound 2194] | 6.40 | 5.82 |
| CN(C)Cc1ccc(-c2ccc3oc4c(-c5ccccc5)nc(=O)n(-c5ccccc5)c4c3c2)cc1 [Compound 2213] | 7.07 | 6.63 |
| CN1CCN(c2ccc(-c3nc(=O)n(CCN4CCCC4)c4c3oc3ccc(Cl)cc34)cn2)CC1 [Compound 2232] | 7.66 | 6.62 |
| CNC1CCN(c2ccc(-c3nc(=O)n(CCOC)c4c3oc3ccc(Cl)cc34)cn2)C1 (centres unmarked) [Compound 2254] | 7.40 | 6.68 |
| CN1CCN(c2ccc(-c3nc(=O)n(C)c4c3oc3ccc(Br)cc34)cn2)CC1 [Compound 2257] | 7.51 | 6.72 |
| COCCn1c(=O)nc(-c2ccc(N3CCN(C)CC3)nc2)c2oc3ccc(Cl)cc3c21 [Compound 2260] | 7.12 | 6.05 |
| CCNCc1nc2cc(-c3nc(=O)n(CCCOC)c4c3oc3ccc(Cl)cc34)ccc2n1C [Compound 2273] | 8.10 | 7.24 |
| CC(C)N1CCN(c2ccc(-c3nc(=O)n(CC(=O)N4CC[C@H](F)C4)c4c3oc3ccc(Cl)cc34)cn2)CC1 [Compound 2277] | 8.15 | 7.04 |
| CCCCCn1c(=O)nc(-c2ccc3c(c2)nc(C)n3C)c2oc3ccc(-c4cnn(C)c4)cc3c21 [Compound 2287] | 8.30 | 7.74 |
| CN(C)Cc1ccc(-c2ccc3oc4c(-c5ccccc5)nc(=O)n(CC(=O)NC5CC5)c4c3c2)cc1 [Compound 2310] | 6.00 |  |
| CN(C)Cc1ccc(-c2ccc3oc4c(c3c2)N(CC2CCCO2)S(=O)(=O)N=C4c2ccccc2)cc1 (centres unmarked) [Compound 3003] | < 6.65 | 6.02 |
| COCCCN1c2c(oc3ccc(-c4ccc(CN(C)C)cc4)cc23)C(c2ccccc2)=NS1(=O)=O [Compound 3004] | < 6.69 | 6.28 |
| O=C(O)Cn1c2ccc(Cl)cc2c2c1c(-c1ccccc1)nc(=O)n2CCN1CCCC1 [Compound 4001] | 6.55 | 5.24 |
| COCCCN1CCN(c2ccc(-c3nc(=O)n(CCCOC)c4c3oc3ncccc34)cn2)CC1 [Compound 5001] | 7.22 | 6.23 |
| COCCCn1c(=O)nc(-c2ccc(N3CCC(NCC(F)F)CC3)nc2)c2oc3ncc(-c4cnn(C)c4)cc3c21 [Compound 5004] | 7.85 |  |
| COCCCn1c(=O)nc(-c2ccc(N3CCN(C(C)C)CC3)nc2)c2oc3cnccc3c21 [Compound 5019] | 7.60 | 6.55 |
| CCCCCn1c(=O)nc(-c2ccc(N3CCN(C)CC3)nc2)c2oc3ncc(C#N)cc3c21 [Compound 5024] | 8.22 | 7.49 |
| COCCCn1c(=O)nc(-c2ccc(N3CCN(C)CC3)nc2)c2oc3ncc(-c4cncs4)cc3c21 [Compound 5028] | 8.39 | 7.68 |
